In ChEMBL document CHEMBL1131794, “The synthesis and evaluation of 6-alkylidene-2'beta-substituted penam sulfones as beta-lactamase inhibitors” (Bioorg Med Chem Lett, 1999):

Tests used:
Format in all cases: functional
Escherichia coli [1] = test: In vitro synergistic activity against Escherichia coli C600N + (ampR ampC); also: test concentration or dose not given here
Pseudomonas aeruginosa = test: In vitro synergistic activity against Pseudomonas aeruginosa Ps505A1 (AmpC derepressed); also: test concentration or dose not given here
Escherichia coli [2] = test: In vitro synergistic activity against Escherichia coli 300 + (ampR ampC); also: test concentration or dose not given here
[3] = system: Stenotrophomonas maltophilia; test: In vitro synergistic activity against Stenotrophomonas maltophilia 1712(L1); also: test concentration or dose not given here
Escherichia coli [4] = test: In vitro synergistic activity against Escherichia coli C600N + (SHV-1)
Escherichia coli [5] = test: In vitro synergistic activity against Escherichia coli C600N + (PSE-1)
Escherichia coli [6] = test: In vitro synergistic activity against Escherichia coli 300 (no beta-lactamase, imp mutant)
Escherichia coli [7] = test: In vitro synergistic activity against Escherichia coli GC6265 (TEM-1)
Escherichia coli [8] = test: In vitro synergistic activity against Escherichia coli C600N + (IRT-2); also: test concentration or dose not given here
Escherichia coli [9] = test: In vitro synergistic activity against Escherichia coli C600N + (Imi-1)
Escherichia coli [10] = test: In vitro synergistic activity against Escherichia coli C600N + (P99)
Klebsiella pneumoniae [11] = test: In vitro synergistic activity against Klebsiella pneumoniae GC 6269 clinical isolate; also: test concentration or dose not given here
Escherichia coli [12] = test: In vitro synergistic activity against Escherichia coli 4100 + (CCRA)
Escherichia coli [13] = test: In vitro synergistic activity against Escherichia coli C600N + (Sme-1)
Escherichia coli [14] = test: In vitro synergistic activity against Escherichia coli C600N + (OXA-10) {PSE-2}
Escherichia coli [15] = test: In vitro synergistic activity against Escherichia coli C600N (no beta-lactamase)
Escherichia coli [16] = test: In vitro synergistic activity against Escherichia coli C600N + (MIR-1)
Klebsiella pneumoniae [17] = test: In vitro synergistic activity against Klebsiella pneumoniae KC2 (TEM-10); also: test concentration or dose not given here
Enterobacter cloacae [18] = test: In vitro synergistic activity against Enterobacter cloacae SC12629 (AmpC inducible); also: test concentration or dose not given here
Escherichia coli [19] = test: In vitro synergistic activity against Escherichia coli GC 6266 clinical isolate
Escherichia coli [20] = test: In vitro synergistic activity against Escherichia coli C600N + (TEM-10)
Escherichia coli [21] = test: In vitro synergistic activity against Escherichia coli GC6267 clinical isolate
Klebsiella aerogenes = test: In vitro synergistic activity against Enterobacter aerogenes GC 6268 clinical isolate; also: test concentration or dose not given here
Escherichia coli [22] = test: In vitro synergistic activity against Escherichia coli ATCC 25922 (no beta-lactamase); also: test concentration or dose not given here
Serratia marcescens = test: In vitro synergistic activity against Serratia marcescens GC 4132 (Amp C); also: test concentration or dose not given here
Enterobacter cloacae [23] = test: In vitro synergistic activity against Enterobacter cloacae (Imi-1+AmpC)
Escherichia coli [24] = test: In vitro synergistic activity against Escherichia coli C600N + (SHV-4)
Klebsiella pneumoniae [25] = test: In vitro synergistic activity against Klebsiella pneumoniae (ACT-1 + 3 blas, IPM=S); also: test concentration or dose not given here
Escherichia coli [26] = test: In vitro synergistic activity against Escherichia coli ATCC 35218 (TEM-1)
Escherichia coli [27] = test: In vitro synergistic activity against Escherichia coli 4100 (no beta-lactamase)
Escherichia coli [28] = test: In vitro synergistic activity against Escherichia coli C600N + (TEM-1)
Staphylococcus aureus = test: In vitro synergistic activity against Staphylococcus aureus (PC1); also: test concentration or dose not given here
Aeromonas sobria = test: In vitro synergistic activity against Aeromonas sobria (Asb A, OXA-12, Asb M); also: test concentration or dose not given here
Escherichia coli [29] = test: In vitro synergistic activity against Escherichia coli C600N + (L1)
Escherichia coli [30] = test: In vitro synergistic activity against Escherichia coli 300 + (TEM-1)

Row | SMILES | MIC (Escherichia coli [1]) | MIC (Pseudomonas aeruginosa) | MIC (Escherichia coli [2]) | MIC [3] | MIC (Escherichia coli [4]) | MIC (Escherichia coli [5]) | MIC (Escherichia coli [6]) | MIC (Escherichia coli [7]) | MIC (Escherichia coli [8]) | MIC (Escherichia coli [9]) | MIC (Escherichia coli [10]) | MIC (Klebsiella pneumoniae [11]) | MIC (Escherichia coli [12]) | MIC (Escherichia coli [13]) | MIC (Escherichia coli [14]) | MIC (Escherichia coli [15]) | MIC (Escherichia coli [16]) | MIC (Klebsiella pneumoniae [17]) | MIC (Enterobacter cloacae [18]) | MIC (Escherichia coli [19]) | further results
1 | CCN1CCN(C(=O)NC(C(=O)N[C@@H]2C(=O)N3[C@@H]2SC(C)(C)[C@@H]3C(=O)[O-])c2ccccc2)C(=O)C1=O.C[C@]1(COC(=O)Cc2ccc(O)c(O)c2)[C@H](C(=O)[O-])N2C(=O)/C(=C/c3ccccn3)C2S1(=O)=O.[Na+].[Na+] (stereo not given in full) | 16 µg/mL | 2 µg/mL | 2 µg/mL | > 64 µg/mL | 2 µg/mL | 2 µg/mL | < 0.006 µg/mL | 4 µg/mL | 2 µg/mL | 8 µg/mL | 16 µg/mL | 8 µg/mL | > 64 µg/mL | 8 µg/mL | 2 µg/mL | 1 µg/mL | 8 µg/mL | 4 µg/mL | 64 µg/mL | 16 µg/mL | MIC (Escherichia coli [20]): 2 µg/mL; MIC (Escherichia coli [21]): 16 µg/mL; MIC (Klebsiella aerogenes): 64 µg/mL; MIC (Escherichia coli [22]): 1 µg/mL; MIC (Serratia marcescens): 4 µg/mL; MIC (Enterobacter cloacae [23]): 16 µg/mL; MIC (Escherichia coli [24]): 2 µg/mL; MIC (Klebsiella pneumoniae [25]): 32 µg/mL; MIC (Escherichia coli [26]): 1 µg/mL; MIC (Escherichia coli [27]): < 0.06 µg/mL; MIC (Escherichia coli [28]): 2 µg/mL; MIC (Staphylococcus aureus): 1 µg/mL; MIC (Aeromonas sobria): 1 µg/mL; MIC (Escherichia coli [29]): 64 µg/mL; MIC (Escherichia coli [30]): 1 µg/mL
2 | CC(C)(O/N=C(\C(=O)N[C@@H]1C(=O)N2C(C(=O)[O-])=C(C[n+]3ccccc3)CS[C@H]12)c1csc(N)n1)C(=O)O [CEFTAZIDIME] | 64 µg/mL | 32 µg/mL | 4 µg/mL | > 64 µg/mL | 0.5 µg/mL | 0.25 µg/mL | < 0.06 µg/mL | < 0.06 µg/mL | 0.25 µg/mL | 1 µg/mL | 64 µg/mL | 0.5 µg/mL | > 64 µg/mL | 0.5 µg/mL | 0.12 µg/mL | 0.12 µg/mL | 64 µg/mL | 64 µg/mL | > 64 µg/mL | 0.25 µg/mL | MIC (Escherichia coli [20]): 64 µg/mL; MIC (Escherichia coli [21]): 0.25 µg/mL; MIC (Klebsiella aerogenes): > 64 µg/mL; MIC (Escherichia coli [22]): < 0.06 µg/mL; MIC (Serratia marcescens): 0.25 µg/mL; MIC (Enterobacter cloacae [23]): 0.5 µg/mL; MIC (Escherichia coli [24]): > 64 µg/mL; MIC (Klebsiella pneumoniae [25]): > 64 µg/mL; MIC (Escherichia coli [26]): < 0.06 µg/mL; MIC (Escherichia coli [27]): < 0.06 µg/mL; MIC (Escherichia coli [28]): 0.12 µg/mL; MIC (Staphylococcus aureus): 4 µg/mL; MIC (Aeromonas sobria): < 0.06 µg/mL; MIC (Escherichia coli [29]): 32 µg/mL; MIC (Escherichia coli [30]): < 0.06 µg/mL
